According to patent publication US12441693B2, “Targeting STAT sumoylation to enhance immune responses” (THE GEORGE WASHINGTON UNIVERSITY, priority 2018, dated 2025):

Tests used:
STAT5 = target: T1, STAT5 (Homo sapiens, UniProt P42229); experiment: Cellular thermal shift assay (CETSA) in 293FT-STAT5A cell lysates; type: binding
T1 construct: expressed in transfected cells; host or cells: 293FT HEK cells expressing STAT5A (293FT-STAT5A)
T1 sequence (P42229 1-794): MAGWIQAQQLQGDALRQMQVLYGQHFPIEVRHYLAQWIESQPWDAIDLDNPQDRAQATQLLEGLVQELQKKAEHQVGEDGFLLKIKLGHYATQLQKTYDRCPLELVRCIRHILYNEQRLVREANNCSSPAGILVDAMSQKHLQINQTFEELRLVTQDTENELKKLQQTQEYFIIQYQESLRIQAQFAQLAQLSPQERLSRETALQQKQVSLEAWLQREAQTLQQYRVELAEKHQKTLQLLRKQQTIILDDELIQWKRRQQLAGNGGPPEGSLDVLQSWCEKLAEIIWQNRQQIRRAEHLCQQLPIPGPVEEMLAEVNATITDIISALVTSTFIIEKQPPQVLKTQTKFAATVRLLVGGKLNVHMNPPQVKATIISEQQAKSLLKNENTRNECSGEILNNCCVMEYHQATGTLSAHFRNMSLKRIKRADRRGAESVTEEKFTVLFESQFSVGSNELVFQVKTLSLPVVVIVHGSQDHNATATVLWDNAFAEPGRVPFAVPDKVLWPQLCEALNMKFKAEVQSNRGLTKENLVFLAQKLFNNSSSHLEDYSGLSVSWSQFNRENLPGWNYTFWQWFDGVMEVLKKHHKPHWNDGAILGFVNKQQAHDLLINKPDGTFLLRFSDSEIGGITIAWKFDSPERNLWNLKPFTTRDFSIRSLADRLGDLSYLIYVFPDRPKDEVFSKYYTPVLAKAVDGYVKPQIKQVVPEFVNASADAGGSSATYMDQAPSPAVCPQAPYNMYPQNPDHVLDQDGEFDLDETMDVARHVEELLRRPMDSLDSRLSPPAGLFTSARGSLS
Text: To evaluate whether HODHBt and its analogs were directly binding to STAT5, a recently developed assay, cellular thermal shift assay (CETSA), was used. CETSA is based on the biophysical principle of ligand-induced changes in thermal stability of target proteins. As detailed in Molina & Nordlund, ANNU RE[…]. 2016; 56:141-61, the disclosure of which is hereby incorporated by reference in its entirety, the CETSA assay has been extensively used to identify drug targets using lysates, cells and tissues (FIG. 7A). After heating at different temperatures, the soluble fractions are analyzed for changes in the levels of the target protein (FIG. 7B). Binding of the compound can change the temperature at which the protein is denaturalized (FIG. 7C) leading to a change in the thermal melting curve (FIG. 7D).
First, it was addressed whether HODHBt induced a thermal shift of STAT5 using cell lysates from 293FT-STAT5A. In this assay, high drug concentrations were used to perform CETSA in cell lysates (10,000-20,000 times the IC50). […] Briefly, cell lysates were incubated with either DMSO or HODHBt for 30 minutes at 25° C. After incubation, lysates were heated from 40° C. to 75° C. in 5 degrees intervals and the insoluble fractions were eliminated by centrifugation. […]

[1] = tested on: polyclonally activated CD4 T cells (TCM) killed by CD8 T cells
Text: An in vitro model to assess the cytolytic potential of human polyclonally activated CD8 T cells was developed. This model relied on the concept of a mix-lymphocyte reaction (MLR) in which CD8 T cells recognize CD4 T cells from a different donor as foreign and induced their killing (FIG. 11A). In this model, polyclonally activated CD8 T cells were co-cultured with polyclonally activated CD4 T cells from a different donor at an effector:target ratio (E:T) of 1:1. Cell death in both CD4 and CD8 subsets was measured at different time points using a fixable viability dye.
To test this hypothesis, polyclonally activated CD8 T cells were co-cultured with polyclonally activated CD4 T cells from a different donor to resemble a mixed-lymphocyte reaction (MLR) at an effector:target ratio (E:T) 1:1 (FIG. 15A). CD4 T cells were activated in conditions that generate central memory CD4 T cells (TCM) cells. CD4 TCM are more resistant to apoptosis than other subsets of CD4 T cells. Cell death in both CD4 and CD8 subsets was measured at 72 hours using a fixable viability dye. Specifically, polyclonally activated CD4 T cells and CD8 T cells were co-cultured and cell death was measured at 72 hours. […] Using this assay, it was tested whether HODHBt increased the cytolytic capacity of CD8 T cells in two experimental set ups.

CD4 T cells = experiment: Expansion of activated CD4 T cells with IL-2; type: cell-based, human; conditions: activated in vitro, IL-2, vs DMSO
Text: For these tests, human CD4 and CD8 T cells were activated in vitro and expanded with interleukin-2 (IL-2) in the presence of DMSO (control vehicle) or HODHBt.

STAT5, STAT1, STAT3 = experiment: Western blot of phosphorylated STATs in NK cells; type: cell-based, human
Protocol: Next, NK cells were cultured with IL-15 in the presence or absence of HODHBt and levels of phosphorylated STATs were measured by Western blot.
(§1) In general, samples are prepared and loaded on to a gel and during the electrophoresis the negatively charged proteins move toward the positively charged anode. In order to further analyze the proteins, they are transferred onto a membrane in a procedure called blotting. After the transfer, the membrane is blocked in order to prevent unwanted membrane-protein interaction in the following steps. To visualize the protein of interest the membrane is commonly first probed using a primary protein-specific antibody followed by a labeled secondary antibody used for detection. An image is taken of the membrane and the result is analyzed.

[2] = tested on: STAT1, STAT2, STAT3, STAT4, STAT5A, STAT5B, STAT6; experiment: Western blot of STAT phosphorylation in 293FT HEK cells transfected with V5-tagged STATs; type: cell-based; conditions: 24 hours, vs DMSO
Protocol: as §1

Structure (SMILES): O=c1c2ccccc2nnn1O [HODHBt]
- high molecular band generated (size of STAT5 dimer) (STAT5; lysates incubated with HODHBt, Western blot): approximately 188 kDa
- thermal melting curve of STAT5 (STAT5; lysates, 5 mM, 30 minutes at 25° C, heated 40-75° C): drastically changed the thermal melting curve of STAT5, promoting its degradation
- killing capacity of CD8 T cells expanded in the presence of compound ([1]; CD8 T cells expanded in the presence of HODHBt): higher killing capacity
- killing capacity of CD8 T cells over TCM cells ([1]; HODHBt added during the MLR reaction, 72 hours): increased the killing capacity of CD8 T cells over TCM cells in a dose dependent manner
- CD8 T cell death in co-culture ([1]; human): no increase in cell death in CD8 T cells in any of the experimental conditions
- toxicity on CD8 T cells ([1]; human, 72 h): no overt toxicity on CD8 T cells
- CD4 T cell death in co-culture with CD8 T cells ([1]; time course, fixable viability dye): detected only in the co-culture treated with HODHBt at 72 hours and 96 hours
- expansion of CD4 T cells (CD4 T cells): increased expansion
- phosphorylation of STAT1 in NK cells (STAT5, STAT1, STAT3; HODHBt alone): increased the phosphorylation levels of STAT1
- phosphorylation of STAT5 in NK cells (STAT5, STAT1, STAT3; after IL-15 treatment): increased the levels of phosphorylation of STAT5 after IL-15 treatment
- phosphorylation of STAT1 and STAT3 in NK cells (STAT5, STAT1, STAT3; with IL-15, vs IL-15): enhanced the levels of phosphorylation of STAT1 and STAT3 induced by IL-15
- phosphorylation levels of STATs [2]: increased phosphorylation levels of all the other STATs
